Structures can show the parent of a compound that is named as a salt.
Tested on: mice
Assay: Neuropharmacological Assay (SmartCube): automated behavioral signature of compound-treated mice compared with a database of reference drug classes
Type: in vivo
Conditions: for AG / AN / AX / CE / MS / SH / UK / AD / AP / HL / PS: probability that activity matches this class of agents, 3.0 mg/kg i.p., 15 min before test
Source text: Neurosci. 2011 Sep. 9; 5: 103 (doi: 10.3389/fnins.2011.00103) (“Roberds”). As reported in Roberds, because psychiatric diseases generally result from disorders of cell-cell communication or circuitry, intact systems are useful in detecting improvement in disease-relevant endpoints. These endpoints are typically behavioral in nature, often requiring human observation and interpretation. To facilitate testing of multiple compounds for behavioral effects relevant to psychiatric disease, PsychoGenics, Inc. (Tarrytown, NY, “PGI”) developed SmartCube™ an automated system in which behaviors of compound-treated mice are captured by digital video and analyzed with computer algorithms. (D. Brunner et al. Drug Discov. Today 2002, 7:S107-S112). PGI Analytical Systems uses data from SmartCube™ to compare the behavioral signature of a test compound to a database of behavioral signatures obtained using a large set of diverse reference compounds. (The composition of the database as well as validation of the method is further described in Roberds). In this way, the neuropharmacological effects of a test compound can be predicted by similarity to major classes of compounds, such as antipsychotics, anxiolytics and antidepressants.
The SmartCube™ system produces an activity signature indicating the probability that the activity of the test compound at the administered dose matches a given class of neuropharmacological agents. (See, e.g., Roberds, FIGS. 2 and 3). The test compound is simultaneously compared against multiple classes of agents; thus, a separate probability is generated for each behavioral effect measured (e.g., anxiolytic activity, analgesic activity, etc.). In table 2 below, these probabilities are reported for each behavioral effect measured as described in Table 1 below.
Provided compounds were dissolved in a mixture of Pharmasolve™ (N-methyl-2-pyrrolidone), polyethylene glycol and propylene glycol, and were injected i.p. 15 min. before the behavioral test. For each compound, injections were administered at 3 different doses. For each behavioral effect measured, results for the 3.0 mg/kg dose are presented. The potency of many of the compounds in the table was also determined in the SmartCube™ system. Test compounds were routinely examined at dose levels of 0.3, 1, 3 and 10 mg per kg (mpk), although the dose range was increased or decreased, if necessary, to obtain a full dose response curve. A compound's minimal effective dose (MED) is a measure of the compound's potency. The MED was defined as the dose (in mpk) having 45% or more total activity in SmartCube. If only one dose was tested, that dose is shown in the MED column of Table 2 even though the dose is not known to be the MED.

[1] = dose having 45% or more total activity in SmartCube, i.p., if only one dose was tested, that dose is shown, hydrochloride

## Cc1csc2c1CCC(N)C2 (single isomer, unassigned) [Compound 65, 3-methyl-4,5,6,7-tetrahydrobenzothiophen-6-amine hydrochloride]
[1]
  MED (minimal effective dose): 3 mpk
  AG: ND (^ <4%)
  AN: ND (^ <4%)
  AX: ND (^ <4%)
  CE: ND (^ <4%)
  MS: ND (^ <4%)
  SH: ND (^ <4%)
  UK: ND (^ <4%)
hydrochloride, 3 mg/kg
  AD: +++ (≥49%)
  AP: ND (^ <4%)
  HL: + (≥4%)
  PS: + (≥4%)

## Cc1csc2c1CCC(N)C2 (single isomer, unassigned) [Compound 66, 3-methyl-4,5,6,7-tetrahydrobenzothiophen-6-amine hydrochloride]
[1]
  MED (minimal effective dose): 1 mpk
  AG: ND (^ <4%)
  AN: ND (^ <4%)
  AX: ND (^ <4%)
  CE: ND (^ <4%)
  MS: ND (^ <4%)
  SH: ND (^ <4%)
  UK: ND (^ <4%)
hydrochloride, 3 mg/kg
  AD: ND (^ <4%)
  AP: ++++ (≥74%)
  HL: ND (^ <4%)
  PS: ND (^ <4%)

## Cc1sc2c(c1C)CCC(N)C2 (single isomer, unassigned) [Compound 67, 2,3-dimethyl-4,5,6,7-tetrahydrobenzothiophen-6-amine hydrochloride]
Mus musculus, ip, dose having 45% or more total activity in SmartCube, i.p., if only one dose was tested, that dose is shown, read-out: MED (minimal effective dose)
  minimal effective dose: 3 mg/kg
  AG: ND (^ <4%)
  AN: ND (^ <4%)
  AP: ND (^ <4%)
  AX: ND (^ <4%)
  CE: ND (^ <4%)
  MS: ND (^ <4%)
  PS: ND (^ <4%)
  SH: ND (^ <4%)
  UK: ND (^ <4%)
hydrochloride, 3 mg/kg
  AD: +++ (≥49%)
  HL: ND (^ <4%)

## Cc1sc2c(c1C)CCC(N)C2 (single isomer, unassigned) [Compound 68, 2,3-dimethyl-4,5,6,7-tetrahydrobenzothiophen-6-amine hydrochloride]
Dose having 45% or more total activity in SmartCube, i.p., if only one dose was tested, that dose is shown
  MED (minimal effective dose): 3 mpk
  AG: ND (^ <4%)
  AN: ND (^ <4%)
  AP: ND (^ <4%)
  AX: ND (^ <4%)
  CE: ND (^ <4%)
  MS: ND (^ <4%)
  PS: ND (^ <4%)
  SH: ND (^ <4%)
  UK: ND (^ <4%)
hydrochloride, 3 mg/kg
  AD: ++ (≥24%)
  HL: + (≥4%)

## CNC1CCc2scc(C)c2C1.Cl (single isomer, unassigned) [Compound 69, N, 3-dimethyl-4,5,6,7-tetrahydrobenzothiophen-5-amine hydrochloride]
[1]
  MED (minimal effective dose): 3 mpk
  AD: ND (^ <4%)
  AG: ND (^ <4%)
  AN: ND (^ <4%)
  CE: ND (^ <4%)
  HL: ND (^ <4%)
  MS: ND (^ <4%)
  PS: ND (^ <4%)
  SH: ND (^ <4%)
hydrochloride, 3 mg/kg
  AP: ND (^ <4%)
  AX: ND (^ <4%)
  UK: +++ (≥49%)

## CNC1CCc2scc(C)c2C1.Cl (single isomer, unassigned) [Compound 70, N, 3-dimethyl-4,5,6,7-tetrahydrobenzothiophen-5-amine hydrochloride]
[1]
  MED (minimal effective dose): 1 mpk
  AD: ND (^ <4%)
  AG: ND (^ <4%)
  AN: ND (^ <4%)
  CE: ND (^ <4%)
  HL: ND (^ <4%)
  MS: ND (^ <4%)
  PS: ND (^ <4%)
  SH: ND (^ <4%)
hydrochloride, 3 mg/kg
  AP: +++ (≥49%)
  AX: + (≥4%)
  UK: ND (^ <4%)

## CNC1CCc2csc(F)c2C1 (single isomer, unassigned) [Compound 73, 3-fluoro-N-methyl-4,5,6,7-tetrahydro-2-benzothiophen-5-amine hydrochloride]
[1]
  MED (minimal effective dose): 1 mpk
  AG: ND (^ <4%)
  AN: ND (^ <4%)
  CE: ND (^ <4%)
  HL: ND (^ <4%)
  MS: ND (^ <4%)
  PS: ND (^ <4%)
  SH: ND (^ <4%)
  UK: ND (^ <4%)
hydrochloride, 3 mg/kg
  AD: ND (^ <4%)
  AP: ND (^ <4%)
  AX: ++++ (≥74%)

## CNC1CCc2csc(F)c2C1 (single isomer, unassigned) [Compound 74, 3-fluoro-N-methyl-4,5,6,7-tetrahydro-2-benzothiophen-5-amine hydrochloride]
[1]
  MED (minimal effective dose): 3 mpk
  AG: ND (^ <4%)
  AN: ND (^ <4%)
  CE: ND (^ <4%)
  HL: ND (^ <4%)
  MS: ND (^ <4%)
  PS: ND (^ <4%)
  SH: ND (^ <4%)
  UK: ND (^ <4%)
hydrochloride, 3 mg/kg
  AD: + (≥4%)
  AP: ++++ (≥74%)
  AX: ND (^ <4%)

## CNC1CCc2c(csc2F)C1 (single isomer, unassigned) [Compound 75, 1-fluoro-N-methyl-4,5,6,7-tetrahydro-2-benzothiophen-5-amine hydrochloride]
[1]
  MED (minimal effective dose): 1 mpk
  AD: ND (^ <4%)
  AG: ND (^ <4%)
  AN: ND (^ <4%)
  CE: ND (^ <4%)
  HL: ND (^ <4%)
  MS: ND (^ <4%)
  PS: ND (^ <4%)
  SH: ND (^ <4%)
  UK: ND (^ <4%)
hydrochloride, 3 mg/kg
  AP: ++++ (≥74%)
  AX: ND (^ <4%)

## CNC1CCc2c(csc2F)C1 (single isomer, unassigned) [Compound 76, 1-fluoro-N-methyl-4,5,6,7-tetrahydro-2-benzothiophen-5-amine hydrochloride]
[1]
  MED (minimal effective dose): 3 mpk
  AD: ND (^ <4%)
  AG: ND (^ <4%)
  AN: ND (^ <4%)
  CE: ND (^ <4%)
  HL: ND (^ <4%)
  MS: ND (^ <4%)
  PS: ND (^ <4%)
  SH: ND (^ <4%)
  UK: ND (^ <4%)
hydrochloride, 3 mg/kg
  AP: ++ (≥24%)
  AX: ++ (≥24%)

## CNC1CCc2c(F)sc(F)c2C1 (single isomer, unassigned) [Compound 77, 1,3-difluoro-N-methyl-4,5,6,7-tetrahydro-2-benzothiophen-5-amine hydrochloride]
[1]
  MED (minimal effective dose): 0.3 mpk
  AG: ND (^ <4%)
  AN: ND (^ <4%)
  AP: ++ (≥24%)
  CE: ND (^ <4%)
  HL: ND (^ <4%)
  MS: ND (^ <4%)
  PS: ND (^ <4%)
  SH: ND (^ <4%)
hydrochloride, 3 mg/kg
  AD: ++ (≥24%)
  AX: + (≥4%)
  UK: ND (^ <4%)

## CNC1CCc2c(F)sc(F)c2C1 (single isomer, unassigned) [Compound 78, 1,3-difluoro-N-methyl-4,5,6,7-tetrahydro-2-benzothiophen-5-amine hydrochloride]
[1]
  MED (minimal effective dose): 1 mpk
  AG: ND (^ <4%)
  AN: ND (^ <4%)
  AP: ++ (≥24%)
  CE: ND (^ <4%)
  HL: ND (^ <4%)
  MS: ND (^ <4%)
  PS: ND (^ <4%)
  SH: ND (^ <4%)
hydrochloride, 3 mg/kg
  AD: ND (^ <4%)
  AX: ++ (≥24%)
  UK: + (≥4%)

## CNC1CCc2cc(F)sc2C1 (single isomer, unassigned) [Compound 80, 2-fluoro-N-methyl-4,5,6,7-tetrahydrobenzothiophen-6-amine hydrochloride]
[1]
  MED (minimal effective dose): 3 mpk
  AG: ND (^ <4%)
  AN: ND (^ <4%)
  CE: ND (^ <4%)
  HL: ND (^ <4%)
  MS: ND (^ <4%)
  PS: ND (^ <4%)
  SH: ND (^ <4%)
  UK: ND (^ <4%)
hydrochloride, 3 mg/kg
  AD: ++ (≥24%)
  AP: + (≥4%)
  AX: + (≥4%)

## CNC1CCc2cc(F)sc2C1 (single isomer, unassigned) [Compound 81, 2-fluoro-N-methyl-4,5,6,7-tetrahydrobenzothiophen-6-amine hydrochloride]
[1]
  MED (minimal effective dose): 1 mpk
  AG: ND (^ <4%)
  AN: ND (^ <4%)
  CE: ND (^ <4%)
  HL: ND (^ <4%)
  MS: ND (^ <4%)
  PS: ND (^ <4%)
  SH: ND (^ <4%)
  UK: ND (^ <4%)
hydrochloride, 3 mg/kg
  AD: ND (^ <4%)
  AP: ++++ (≥74%)
  AX: ND (^ <4%)
